Values after ≈ are worked out from the molar mass of the structure shown. Bridge positions count the residues as written; N and C are the ends. Square brackets hold non-standard residues; d marks the D form. Peptide text beside a SMILES is read from it. I, II: the chains in the order shown. Ahx = NCCCCCC(=O)O
Assays:
[1] = system: MCF-7 cell line; assay: MTT viability test, MCF-7 cells; assay type: cell-based, human; settings: for cytotoxic effect against MCF-7 compared with ^26[M] (in words) / IC50: 24 h; for IC50, cytotoxic effect, MCF-7: 24 h at 37 °C, three independent experiments with n = 4 each; for IC50: human, pH 7.4
Protocol: (§1) For all cell lines, the medium used was Dulbecco’s Modified Eagle’s Medium (DMEM)/Nutrient Mixture F-12 Ham. For the HTB-132, MCF-7, and MCF-12A lines, the medium was supplemented with 10% fetal bovine serum (SFB), and 1.5 g/L NaHCO3 and NaOH were added up to pH 7.4, amphotericin (200 μg/mL), and 1% penicillin and streptomycin. For the primary culture cells of bovine mammary epithelium and fibroblasts, in addition to the above, hydrocortisone (250 μg/mL) was added. All media were filtered through a 0.22 μm membrane.
(§2) Briefly, the cells were seeded with a complete medium in 96-well plates at a rate of 10,000 cells and 100 µL per well, and adhesion to the plates was allowed for 24 h. Subsequently, the complete medium was removed and an incomplete medium was added for synchronization for another 24 h. The cells were then incubated at 37 °C for 2, 24, or 48 h with 100 μL of peptide at the concentrations to be evaluated (200, 100, 50, 25, 12.5, 6.25 and 3.1 μg/mL). Next, the peptide was removed from the box, and 100 µL of incomplete medium with 10% 3-4,5-dimethylthiazol-2-yl-2,5-diphenyltetrazole (MTT) bromide was added and incubated for 4 h. The medium was replaced with 100 μL of isopropanol (IPA), and after 30 min of incubation at 37 °C, the absorbance was measured at 575 nm. As a negative control, an incomplete culture medium with 10% MTT was used, and as a positive control, cells without MTT treatment were used.

[2] = system: HTB-132 cell line; assay: MTT viability test, HTB-132 cells; assay type: cell-based, human; settings: for cytotoxic effect against HTB-132 compared with ^26[M] (in words) / IC50, cytotoxic effect, HTB-132: MTT; for cytotoxic effect against HTB-132 compared with ^26[M] (in words) / IC50: 24 h; for IC50, cytotoxic effect, HTB-132: 24 h at 37 °C, mean of n = 3; for IC50: human, pH 7.4
Protocol: as §1, §2

[3] = system: MCF-12 cell line; assay type: cell-based, human
Protocol: as §1, §2

[4] = system: MCF-7 cells; assay: Cell morphology and size by inverted microscope; assay type: cell-based, human; settings: MCF-7, 90 min of treatment, 37 °C; from 100.27 μm before; average of 100 measurements; Figure 3: 100 µg/mL
Protocol: Cell morphology was monitored before and after treatment with ^26[L] or ^26[F] at different times, using an inverted microscope coupled to an AxioCam ICc1 camera (Figure 3). The untreated cells had normal morphologic characteristics as polygonal, flattened, and elongated cells with long and defined axons (data not shown). After 5 min of treatment with the peptide, most cells retained their morphology; however, some began to appear rounded and shrunken. After 90 min, the cells treated with the peptide (^26[L] or ^26[F]) took on a rounded shape, and shrinkage was observed, going from an average size of 100.27 μm to 39.38 µm. […] At 24 h of treatment, the appearance of small vacuoles was observed, presumably associated with late apoptosis events. Finally, it was observed that the effect of the peptide was sustained up to 48 h since at that time no recovery of cell morphology was observed.
Figure 3 Micrography of MCF-7 cells treated with peptide ^26[F] at 100 µg/mL. The cells were incubated in the absence (A) or the presence of the peptide at (B) 5 min, (C) 90 min, (D) 240 min, (E) 24 h, and (F) 48 h at 37 °C. The cell size was determined as an average of 100 measurements, using an AxioCam ICc1 camera.

[5] = system: MDA-MB 231 breast cancer cells; settings: cited from earlier work
From the text: (§3) Breast cancer is the most common cancer type diagnosed worldwide. There are 2.1 million cases annually, and 627,000 deaths of women due to this disease were reported in 2018 [5]. […] However, when this motif was modified or included in longer sequences, the cytotoxic effect against human cancer cell lines increased. In ...

[6] = system: MDA-MB 468 breast cancer cells; settings: cited from earlier work
From the text: as §3

Molecule | cytotoxic effect against MCF-7 compared with ^26[M] (in words) ([1]; MTT) | IC50, cytotoxic effect, MCF-7 ([1]; MTT) [µg/mL] | IC50 [1] [µM] | cytotoxic effect against HTB-132 compared with ^26[M] (in words) [2] | IC50, cytotoxic effect, HTB-132 [2] [µg/mL] | IC50 [2] [µM] | cytotoxic effect against MCF-12 compared with HTB-132 and MCF-7 (in words) [3] | IC50, non-tumorigenic cell line MCF-12 ([3]; 24 h) [µg/mL] | average cell size after treatment [4] [µm] | maximum cytotoxic effect, MCF-7 ([1]; MTT, peptide 200 µg/mL, regardless of treatment time (2, 24, 48 h)) [%] | cytotoxic effect against MDA-MB-231 (in words) [5] | cytotoxic effect against MDA-MB-468 (in words) [6]
CC(C)C[C@H](NC(=O)[C@H](CCCCN)NC(=O)[C@H](CCCCN)NC(=O)[C@H](C)NC(=O)[C@H](CCCNC(=N)N)NC(=O)[C@H](Cc1c[nH]c2ccccc12)NC(=O)[C@H](CCC(N)=O)NC(=O)[C@H](Cc1c[nH]c2ccccc12)NC(=O)[C@H](CCCNC(=N)N)NC(=O)[C@@H](N)CCCNC(=N)N)C(=O)NCC(=O)NCCCC[C@H](NC(=O)CNC(=O)[C@H](CC(C)C)NC(=O)[C@H](CCCCN)NC(=O)[C@H](CCCCN)NC(=O)[C@H](C)NC(=O)[C@H](CCCNC(=N)N)NC(=O)[C@H](Cc1c[nH]c2ccccc12)NC(=O)[C@H](CCC(N)=O)NC(=O)[C@H](Cc1c[nH]c2ccccc12)NC(=O)[C@H](CCCNC(=N)N)NC(=O)[C@@H](N)CCCNC(=N)N)C(=O)NCCCCCC(N)=O [^26[A], (RRWQWRAKKLG)2-K-Ahx] (I: H-RRWQWRAKKLGK[Ahx]-NH2 / II: H-RRWQWRAKKLG; amide I:12-II:C) | greater cytotoxic effect against MCF-7 cells than the peptide | > 200 | > 60 | – | – | – | – | – | – | – | – | –
CC(C)C[C@H](NC(=O)[C@H](CCCCN)NC(=O)[C@H](CCCCN)NC(=O)[C@H](CC(=O)O)NC(=O)[C@H](CCCNC(=N)N)NC(=O)[C@H](Cc1c[nH]c2ccccc12)NC(=O)[C@H](CCC(N)=O)NC(=O)[C@H](Cc1c[nH]c2ccccc12)NC(=O)[C@H](CCCNC(=N)N)NC(=O)[C@@H](N)CCCNC(=N)N)C(=O)NCC(=O)NCCCC[C@H](NC(=O)CNC(=O)[C@H](CC(C)C)NC(=O)[C@H](CCCCN)NC(=O)[C@H](CCCCN)NC(=O)[C@H](CC(=O)O)NC(=O)[C@H](CCCNC(=N)N)NC(=O)[C@H](Cc1c[nH]c2ccccc12)NC(=O)[C@H](CCC(N)=O)NC(=O)[C@H](Cc1c[nH]c2ccccc12)NC(=O)[C@H](CCCNC(=N)N)NC(=O)[C@@H](N)CCCNC(=N)N)C(=O)NCCCCCC(N)=O [^26[D], (RRWQWRDKKLG)2-K-Ahx] (I: H-RRWQWRDKKLGK[Ahx]-NH2 / II: H-RRWQWRDKKLG; amide I:12-II:C) | – | – | – | lower cytotoxic effect against HTB-132 cells than the original dimeric peptide | > 200 | > 60 | – | – | – | – | – | –
CC(C)C[C@H](NC(=O)[C@H](CCCCN)NC(=O)[C@H](CCCCN)NC(=O)[C@H](CCCCN)NC(=O)[C@H](CCCNC(=N)N)NC(=O)[C@H](Cc1c[nH]c2ccccc12)NC(=O)[C@H](CCC(N)=O)NC(=O)[C@H](Cc1c[nH]c2ccccc12)NC(=O)[C@H](CCCNC(=N)N)NC(=O)[C@@H](N)CCCNC(=N)N)C(=O)NCC(=O)NCCCC[C@H](NC(=O)CNC(=O)[C@H](CC(C)C)NC(=O)[C@H](CCCCN)NC(=O)[C@H](CCCCN)NC(=O)[C@H](CCCCN)NC(=O)[C@H](CCCNC(=N)N)NC(=O)[C@H](Cc1c[nH]c2ccccc12)NC(=O)[C@H](CCC(N)=O)NC(=O)[C@H](Cc1c[nH]c2ccccc12)NC(=O)[C@H](CCCNC(=N)N)NC(=O)[C@@H](N)CCCNC(=N)N)C(=O)NCCCCCC(N)=O [^26[K], (RRWQWRKKKLG)2-K-Ahx] (I: H-RRWQWRKKKLGK[Ahx]-NH2 / II: H-RRWQWRKKKLG; amide I:12-II:C) | – | – | – | lower cytotoxic effect against HTB-132 cells than the original dimeric peptide | > 200 | > 60 | – | – | – | – | – | –
CC(C)C[C@H](NC(=O)[C@H](CCCCN)NC(=O)[C@H](CCCCN)NC(=O)[C@H](CC(C)C)NC(=O)[C@H](CCCNC(=N)N)NC(=O)[C@H](Cc1c[nH]c2ccccc12)NC(=O)[C@H](CCC(N)=O)NC(=O)[C@H](Cc1c[nH]c2ccccc12)NC(=O)[C@H](CCCNC(=N)N)NC(=O)[C@@H](N)CCCNC(=N)N)C(=O)NCC(=O)NCCCC[C@H](NC(=O)CNC(=O)[C@H](CC(C)C)NC(=O)[C@H](CCCCN)NC(=O)[C@H](CCCCN)NC(=O)[C@H](CC(C)C)NC(=O)[C@H](CCCNC(=N)N)NC(=O)[C@H](Cc1c[nH]c2ccccc12)NC(=O)[C@H](CCC(N)=O)NC(=O)[C@H](Cc1c[nH]c2ccccc12)NC(=O)[C@H](CCCNC(=N)N)NC(=O)[C@@H](N)CCCNC(=N)N)C(=O)NCCCCCC(N)=O [^26[L], (RRWQWRLKKLG)2-K-Ahx] (I: H-RRWQWRLKKLGK[Ahx]-NH2 / II: H-RRWQWRLKKLG; amide I:12-II:C) | greater cytotoxic effect against MCF-7 cells than the peptide | 66 (≈ 20.1 µM) | 20 | greater cytotoxic effect against cancer cells than the original peptide | 32 (≈ 9.77 µM) | 10 | lower cytotoxic effect against MCF-12 cells than against breast cancer cell lines | > 100 | 39.38 | ~85 | – | –
RRWQWR [minimal motif peptide of LfcinB, reference compound] | – | – | – | – | – | – | – | – | – | – | low cytotoxic effect | low cytotoxic effect

Source: PMC7352952, “Peptides Derived from (RRWQWRMKKLG)2-K-Ahx Induce Selective Cellular Death in Breast Cancer Cell Lines through Apoptotic Pathway” (International Journal of Molecular Sciences, 2020)
